Test results from PMC9611259, “Antimicrobial Peptides Active in In Vitro Models of Endodontic Bacterial Infections Modulate Inflammation in Human Cardiac Fibroblasts” (Pharmaceutics, 2022).
In brackets after ≈: the same amount, converted by molar mass. Read-outs that look alike come from different tables or passages of the source. Where a SMILES comes first, the peptide text is derived from it. Bridges are numbered along the chain shown (N, C = ends). Roman numbers before positions name the chains, in order. [ ]: non-standard residue; d: D form. βAla = NCCC(=O)O

Legend:
C. krusei ATCC 6268 = format: cell-based
C. glabrata ATCC 90030 = format: cell-based
C. albicans ATCC 90028 = format: cell-based
in vitro = in vitro ADME; conditions: human, serum
Procedure: A pool of sera from healthy volunteers (n = 5) was diluted to 50% with RPMI 1640 medium. A 5 μg/mL solution of the peptides in 50% serum was incubated at 37 °C for different time intervals (2, 4, 24, 48, and 72 h). At the established time, trichloroacetic acid was added at a 7.5% concentration, and the sample was centrifuged at 12,000–13,000× g for 15 min. Part of the supernatant was used for the MALDI-TOF analysis (2 μL) and part (250 μL) for the HPLC analysis, after being diluted with 1% TFA (750 μL). Time-zero HPLC and MS-spectroscopy spectra were obtained immediately after mixing the peptide with 50% serum. The presence of the intact peptide was determined in HPLC by spotting and integrating the peptide peak at the correct retention time. The identity of the peptide peak was further also confirmed by MALDI mass spectrometry.

E. coli LC711 [1] = format: cell-based, Escherichia coli
Procedure: (§1) The bacteria reported in Table 1 were used for conventional susceptibility testing experiments. M33D and M33i/l MICs were determined in triplicate on reference and clinical strains using a microdilution assay, performed according to the guidelines of the Clinical and Laboratory Standards Institute. Briefly, strains were grown on Mueller–Hinton (MH) agar plates (Becton Dickinson, Franklin Lakes, NJ, USA) and a single colony for each strain was picked using a sterile cotton swab, streaked in sterile cation-supplemented MH, and measured with a densitometer (Densichek, bioMèrieux, Marcy l’Etoile, France) up to 0.15 optical density. Wells of a microtiter plate containing 50 μL serial-doubling dilutions of the peptides were inoculated with an equal volume of bacterial suspension. The final bacterial inoculum was 5 × 10^4 CFU/well in a volume of 100 μL. […] Assays were performed in triplicate, and the median MIC values were recorded.

E. coli TG1 [2] = format: cell-based, Escherichia coli; conditions: reference strain; CLSI microdilution, 5 × 10^4 CFU/well, 35° 18–20 h, median of triplicate
Procedure: as §1

Candida species = format: cell-based
E. coli LC711 [3] = format: cell-based, Escherichia coli; conditions: 24 h preformed biofilm challenged with peptide 14 h at 37 °C, crystal violet OD595, triplicate wells
Procedure: (§2) For MBIC, the bacterial suspension (200 μL) of E. faecalis PE, E. faecalis 51299, E. coli TG1, or E. coli LC711, obtained as above, was added to wells in triplicate, in a 96-well U-bottom plate and incubated at 37 °C for 24h. The supernatant was removed, and 200 μL M33D and M33i/l diluted in TSB was added to the wells in twofold serial dilutions of each peptide.
(§3) Untreated bacteria were used as positive control. After 14 h of static incubation at 37 °C, wells were washed thrice with PBS and fixed with PFA 4% in PBS (200 μL) for 30 min at room temperature. Wells were then washed three times, and crystal violet (1% in water) was added and incubated for 30 min in the dark. Wells were again washed, and the color dissolved with ethanol/acetone 80:20. Color was read at 595 nm. The MBIC is the lowest concentration of an antibiotic that results in an OD595 nm difference of ≤10% of the mean of two control well readings.
(§4) Biofilm inhibition activity was evaluated on the basis of two parameters: the biofilm prevention concentration (BPC) and the minimal biofilm inhibition concentration (MBIC). The BPC is the lowest concentration of peptide that results in 10% lower biofilm formation compared to untreated controls. The biofilm was measured after removing planktonic cells by washing the wells, previously incubated for 24 h with the bacteria and the peptide. MBIC is the lowest concentration of peptide that results in a 10% reduction in preformed biofilm compared to untreated controls. A 24 h biofilm was challenged with serial dilutions of the peptides for 14 h. Then after removal of planktonic cells, the residual biofilm was measured. Crystal violet absorbance at […] was used to measure biofilm in the case of both parameters.

E. coli TG1 [4] = format: cell-based, Escherichia coli; conditions: 24 h preformed biofilm challenged with peptide 14 h at 37 °C, crystal violet OD595, triplicate wells
Procedure: as §2, §3, §4

[5] = Eukaryotic cell viability assay (MTT); format: cell-based, murine; conditions: mouse
Procedure: RAW 264.7 cells, 5 × 10^3 per well, were seeded in 96-well plates and incubated for 24 h at 37 °C in a 5% CO2 atmosphere. A 100 μL volume of peptides at different concentrations in fresh medium was then added to the wells and kept for 24 h. Then 20 μL MTT (5 mg/mL) was added to each well, and the plate was incubated at 37 °C for 3 h. Finally, 120 μL HCl 4 mM in isopropanol was added to each well to dissolve the formazan crystals. Optical density was measured with a microplate reader (Bio-Rad, Hercules, CA, USA) at 570 nm. Cell viability was calculated by comparing the values of treated with those of untreated cells. Curves and EC50 were calculated using GraphPad Prism 5.03 software.

E. faecalis ATCC 51299 [6] = format: cell-based, Enterococcus faecalis; conditions: 24 h preformed biofilm challenged with peptide 14 h at 37 °C, crystal violet OD595, triplicate wells
Procedure: as §2, §3, §4

E. faecalis PE [7] = format: cell-based, Enterococcus faecalis; conditions: 24 h preformed biofilm challenged with peptide 14 h at 37 °C, crystal violet OD595, triplicate wells
Procedure: as §2, §3, §4

E. faecalis ATCC 51299 [8] = format: cell-based, Enterococcus faecalis
Procedure: as §1

E. faecalis Fi74B4 = format: cell-based, Enterococcus faecalis
Procedure: as §1

E. faecalis Fi74B1 = format: cell-based, Enterococcus faecalis
Procedure: as §1

E. faecalis PE [9] = format: cell-based, Enterococcus faecalis
Procedure: as §1

[10] = test system: Enterococcus faecalis and faecium; format: cell-based
Procedure: as §1

S. pyogenes CCUG2557 = format: cell-based
Procedure: as §1

C. striatum ATCC = format: cell-based
Procedure: as §1

S. pneumoniae ATCC 49619 = format: cell-based
Procedure: as §1

[11] = test system: Staphylococcus aureus and epidermidis; format: cell-based
Procedure: as §1

P. aeruginosa AV 65 = format: cell-based, Pseudomonas aeruginosa
Procedure: as §1

P. aeruginosa ATCC 27853 = format: cell-based, Pseudomonas aeruginosa
Procedure: as §1

K. pneumoniae 7086042 = format: cell-based, Klebsiella pneumoniae
Procedure: as §1

K. pneumoniae ATCC 13833 = format: cell-based, Klebsiella pneumoniae
Procedure: as §1

E. coli ATCC 25922 = format: cell-based, Escherichia coli
Procedure: as §1

E. coli W03BG0025 = format: cell-based, Escherichia coli
Procedure: as §1

S. aureus USA 300 = format: cell-based, Staphylococcus aureus
Procedure: as §1

S. aureus 3851 = format: cell-based, Staphylococcus aureus
Procedure: as §1

S. epidermidis 6154 = format: cell-based
Procedure: as §1

[12] = test system: S. epidermidis ATCC 14990; format: cell-based
Procedure: as §1

## CC[C@@H](C)[C@@H](NC(=O)[C@@H](CCCCN)NC(=O)[C@H](N)CCCCN)C(=O)N[C@H](CCCNC(=N)N)C(=O)N[C@@H](C(=O)N[C@H](CCCNC(=N)N)C(=O)N[C@H](CC(C)C)C(=O)N[C@H](CO)C(=O)N[C@H](C)C(=O)NCCCC[C@H](NC(=O)[C@@H](C)NC(=O)[C@@H](CO)NC(=O)[C@@H](CC(C)C)NC(=O)[C@@H](CCCNC(=N)N)NC(=O)[C@H](NC(=O)[C@@H](CCCNC(=N)N)NC(=O)[C@H](NC(=O)[C@@H](CCCCN)NC(=O)[C@H](N)CCCCN)[C@H](C)CC)C(C)C)C(=O)NCCCC[C@H](NC(=O)[C@H](CCCCNC(=O)[C@@H](C)NC(=O)[C@@H](CO)NC(=O)[C@@H](CC(C)C)NC(=O)[C@@H](CCCNC(=N)N)NC(=O)[C@H](NC(=O)[C@@H](CCCNC(=N)N)NC(=O)[C@H](NC(=O)[C@@H](CCCCN)NC(=O)[C@H](N)CCCCN)[C@H](C)CC)C(C)C)NC(=O)[C@@H](C)NC(=O)[C@@H](CO)NC(=O)[C@@H](CC(C)C)NC(=O)[C@@H](CCCNC(=N)N)NC(=O)[C@H](NC(=O)[C@@H](CCCNC(=N)N)NC(=O)[C@H](NC(=O)[C@@H](CCCCN)NC(=O)[C@H](N)CCCCN)[C@H](C)CC)C(C)C)C(=O)NCCC(=O)O)C(C)C [M33D]
C. krusei ATCC 6268
  MIC: 6 (32) μM
C. glabrata ATCC 90030
  MIC: 12 (64) μM
C. albicans ATCC 90028
  MIC: 5 (24) μM
In vitro
  remaining at 72 h, 5 μg/mL: 31%
E. coli LC711 [1]; LC711
  MIC: 1.5 µM (≈ 7.02 µg/mL)
E. coli TG1 [2]
  MIC: 1.5 µM (≈ 7.02 µg/mL)
Candida species
  MIC range against Candida species: 5 to 12 µM
E. coli LC711 [3]
  MBIC: 3 µM
E. coli TG1 [4]
  MBIC: 3 µM
[5]; 24 h incubation at 37 °C, MTT, n = 3, read-out: EC50 cytotoxicity
  EC50 at 24 h: 30 µM
E. faecalis ATCC 51299 [6]
  MBIC: 6 µM
E. faecalis PE [7]
  MBIC: 6 µM
E. faecalis ATCC 51299 [8]
  MIC: 3 (16) μM
E. faecalis Fi74B4
  MIC: 1.5 (8) μM
E. faecalis Fi74B1
  MIC: 0.8 (4) μM
E. faecalis PE [9]
  MIC: 1.5 (8) μM
[10]
  MIC range against Enterococcus faecalis and faecium: 0.8 to 3 µM
S. pyogenes CCUG2557
  MIC: 6 (32) μM
C. striatum ATCC
  MIC: 1.5 µM (≈ 7.02 µg/mL)
S. pneumoniae ATCC 49619
  MIC: 6 (32) μM
[11]
  MIC range against Staphylococcus aureus and epidermidis: 0.4 to 1.5 µM

## CC(C)C[C@@H](NC(=O)[C@@H](CCCCN)NC(=O)[C@H](N)CCCCN)C(=O)N[C@H](CCCNC(=N)N)C(=O)N[C@@H](C(=O)N[C@H](CCCNC(=N)N)C(=O)N[C@H](CC(C)C)C(=O)N[C@H](CO)C(=O)N[C@H](C)C(=O)NCCCC[C@H](NC(=O)[C@@H](C)NC(=O)[C@@H](CO)NC(=O)[C@@H](CC(C)C)NC(=O)[C@@H](CCCNC(=N)N)NC(=O)[C@H](NC(=O)[C@@H](CCCNC(=N)N)NC(=O)[C@@H](CC(C)C)NC(=O)[C@@H](CCCCN)NC(=O)[C@H](N)CCCCN)C(C)C)C(=O)NCCCC[C@H](NC(=O)[C@H](CCCCNC(=O)[C@@H](C)NC(=O)[C@@H](CO)NC(=O)[C@@H](CC(C)C)NC(=O)[C@@H](CCCNC(=N)N)NC(=O)[C@H](NC(=O)[C@@H](CCCNC(=N)N)NC(=O)[C@@H](CC(C)C)NC(=O)[C@@H](CCCCN)NC(=O)[C@H](N)CCCCN)C(C)C)NC(=O)[C@@H](C)NC(=O)[C@@H](CO)NC(=O)[C@@H](CC(C)C)NC(=O)[C@@H](CCCNC(=N)N)NC(=O)[C@H](NC(=O)[C@@H](CCCNC(=N)N)NC(=O)[C@@H](CC(C)C)NC(=O)[C@@H](CCCCN)NC(=O)[C@H](N)CCCCN)C(C)C)C(=O)NCCC(=O)O)C(C)C [M33i/l] (I: H-[dK][dK][dL][dR][dV][dR][dL][dS][dA]KK[βAla]-OH / II: H-[dK][dK][dL][dR][dV][dR][dL][dS][dA]K / III: H-[dK][dK][dL][dR][dV][dR][dL][dS][dA] / IV: H-[dK][dK][dL][dR][dV][dR][dL][dS][dA]; amide I:10-IV:C, I:11-II:C, II:10-III:C)
P. aeruginosa AV 65
  MIC: 1.5 (8) μM
P. aeruginosa ATCC 27853
  MIC: 0.8 (4) μM
K. pneumoniae 7086042
  MIC: 6 (32) μM
K. pneumoniae ATCC 13833
  MIC: 3 (16) μM
In vitro
  remaining at 72 h, 5 μg/mL: 25%
E. coli ATCC 25922
  MIC: 3 (16) μM
E. coli LC711 [1]; ColR (colistin-resistant) clinical isolate, CLSI microdilution, 5 × 10^4 CFU/well, 35° 18–20 h, median of triplicate
  MIC: 0.3 (1.6) μM
E. coli TG1 [2]
  MIC: 1.5 µM (≈ 7.02 µg/mL)
E. coli W03BG0025
  MIC: 3 (16) μM
S. aureus USA 300
  MIC: 1.5 (8) μM
S. aureus 3851
  MIC: 0.8 (4) μM
E. coli LC711 [3]
  MBIC: 3 µM
E. coli TG1 [4]
  MBIC: 3 µM
[5]
  EC50 at 24 h: 18 µM
E. faecalis ATCC 51299 [6]
  MBIC: 6 µM
E. faecalis PE [7]
  MBIC: 6 µM
E. faecalis ATCC 51299 [8]
  MIC: 1.5 (8) μM
E. faecalis PE [9]
  MIC: 1.5 (8) μM
S. epidermidis 6154
  MIC: 0.8 (4) μM
[12]
  MIC: 0.8 (4) μM
